Assay results from ChEMBL document CHEMBL1201862, “PubChem BioAssay data set” (2004).
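Assay format: 96-well plates, 48-hour exposure. At the GI50, growth is halved.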 Calls of active or inactive are those of the source. Cut-off read from the data, not from the text of the source: active = GI50 up to about 1.1 µM and inactive = higher.

What was measured:
Assay in all cases: DTP human tumour cell line panel, 48 h
[1] = system: LOX IMVI
[2] = system: SK-OV-3
[3] = system: A498
[4] = system: KM12
[5] = system: SNB-19
[6] = system: CAKI-1
[7] = system: K562
[8] = system: CCRF-CEM
[9] = system: DU-145
[10] = system: HOP-62
[11] = system: NCI-H460
[12] = system: OVCAR-5
[13] = system: A549
[14] = system: SK-MEL-28
[15] = system: U-251
[16] = system: SK-MEL-2
[17] = system: UACC-62
[18] = system: HT-29
[19] = system: Malme-3M
[20] = system: SF-295
[21] = system: UACC-257
[22] = system: NCI-H23
[23] = system: COLO 205
[24] = system: EKVX
[25] = system: M14
[26] = system: IGROV-1
[27] = system: HCT-15
[28] = system: SK-MEL-5
[29] = system: BT-549
[30] = system: SW-620
[31] = system: UO-31
[32] = system: SR
[33] = system: OVCAR-3
[34] = system: MDA-N
[35] = system: OVCAR-4
[36] = system: NCI/ADR-RES
[37] = system: HOP-92
[38] = system: SF-268
[39] = system: TK-10
[40] = system: MOLT-4
[41] = system: NCI-H226
[42] = system: RPMI-8226
[43] = system: SF-539
[44] = system: ACHN
[45] = system: HCT-116
[46] = system: 786-0
[47] = system: NCI-H522
[48] = system: PC-3
[49] = system: MDA-MB-435
[50] = system: SN12C
[51] = system: Hs-578T
[52] = system: OVCAR-8
[53] = system: MDA-MB-231
[54] = system: MCF7
[55] = system: RXF 393
[56] = system: T47D
[57] = system: HL-60
[58] = system: SNB-75

Compound: O=C1/C(=C/c2cccnc2)SC(=S)N1Cc1ccco1
- GI50 [1]: 4.16 µM (inactive)
- GI50 [2]: 19.1 µM (inactive)
- GI50 [3]: 24.7 µM (inactive)
- GI50 [4]: 3.13 µM (inactive)
- GI50 [5]: 32 µM (inactive)
- GI50 [6]: 9.59 µM (inactive)
- GI50 [7]: 14.6 µM (inactive)
- GI50 [8]: 3.21 µM (inactive)
- GI50 [9]: 2.19 µM (inactive)
- GI50 [10]: 5.77 µM (inactive)
- GI50 [11]: 6.37 µM (inactive)
- GI50 [12]: 36.1 µM (inactive)
- GI50 [13]: 31 µM (inactive)
- GI50 [14]: 31 µM (inactive)
- GI50 [15]: 4.37 µM (inactive)
- GI50 [16]: 8.87 µM (inactive)
- GI50 [17]: 8.97 µM (inactive)
- GI50 [18]: 4.01 µM (inactive)
- GI50 [19]: 6.73 µM (inactive)
- GI50 [20]: 35.7 µM (inactive)
- GI50 [21]: 4.92 µM (inactive)
- GI50 [22]: 4.72 µM (inactive)
- GI50 [23]: 6.15 µM (inactive)
- GI50 [24]: 49.5 µM (inactive)
- GI50 [25]: 5.6 µM (inactive)
- GI50 [26]: 6.68 µM (inactive)
- GI50 [27]: 3.72 µM
- GI50 [28]: 13.4 µM (inactive)
- GI50 [29]: 27.2 µM (inactive)
- GI50 [30]: 3.84 µM (inactive)
- GI50 [31]: 2.84 µM (inactive)
- GI50 [32]: 1.44 µM (inactive)
- GI50 [33]: 3.31 µM (inactive)
- GI50 [34]: 2.33 µM (inactive)
- GI50 [35]: 8.81 µM (inactive)
- GI50 [36]: 20.1 µM (inactive)
- GI50 [37]: 5.32 µM (inactive)
- GI50 [38]: 5.94 µM (inactive)
- GI50 [39]: 2.34 µM (inactive)
- GI50 [40]: 3.08 µM (inactive)
- GI50 [41]: 24.4 µM (inactive)
- GI50 [42]: 2.2 µM (inactive)
- GI50 [43]: 2.33 µM (inactive)
- GI50 [44]: 10.7 µM (inactive)
- GI50 [45]: 3.06 µM (inactive)
- GI50 [46]: 3.29 µM (inactive)
- GI50 [47]: 1.43 µM (inactive)
- GI50 [48]: 3.87 µM (inactive)
- GI50 [49]: 2.15 µM (inactive)
- GI50 [50]: 4.47 µM (inactive)
- GI50 [51]: 8.39 µM (inactive)
- GI50 [52]: 4.7 µM (inactive)
- GI50 [53]: 7.08 µM (inactive)
- GI50 [54]: 3.28 µM (inactive)
- GI50 [55]: 3.44 µM (inactive)
- GI50 [56]: 11.7 µM (inactive)

Compound: COC(=O)C(Cc1ccc2c(c1)CCC2)Cc1ccc2c(c1)CCC2
- GI50 [1]: 20.8 µM (inactive)
- GI50 [2]: > 100 µM (inactive)
- GI50 [3]: 38.1 µM (inactive)
- GI50 [4]: 37.3 µM (inactive)
- GI50 [5]: > 100 µM (inactive)
- GI50 [7]: 43.1 µM (inactive)
- GI50 [8]: 32.4 µM (inactive)
- GI50 [9]: > 100 µM (inactive)
- GI50 [10]: > 100 µM (inactive)
- GI50 [11]: 53.2 µM (inactive)
- GI50 [12]: > 100 µM (inactive)
- GI50 [13]: 41.3 µM (inactive)
- GI50 [14]: 94.4 µM (inactive)
- GI50 [15]: 51.9 µM (inactive)
- GI50 [16]: 18.4 µM (inactive)
- GI50 [17]: > 100 µM (inactive)
- GI50 [18]: 29.4 µM (inactive)
- GI50 [20]: 36.6 µM (inactive)
- GI50 [21]: 37 µM (inactive)
- GI50 [22]: 29.6 µM (inactive)
- GI50 [23]: 92.7 µM (inactive)
- GI50 [24]: 44.8 µM (inactive)
- GI50 [25]: 80 µM (inactive)
- GI50 [26]: > 100 µM (inactive)
- GI50 [27]: 89.7 µM
- GI50 [28]: 25.9 µM (inactive)
- GI50 [29]: 27.1 µM (inactive)
- GI50 [30]: > 100 µM (inactive)
- GI50 [31]: 53.3 µM (inactive)
- GI50 [32]: 57 µM (inactive)
- GI50 [33]: 85.1 µM (inactive)
- GI50 [34]: 59.3 µM (inactive)
- GI50 [35]: > 100 µM (inactive)
- GI50 [36]: > 100 µM (inactive)
- GI50 [37]: 31.3 µM (inactive)
- GI50 [38]: 48.6 µM (inactive)
- GI50 [39]: > 100 µM (inactive)
- GI50 [40]: 40.3 µM (inactive)
- GI50 [41]: 42.5 µM (inactive)
- GI50 [42]: 26.1 µM (inactive)
- GI50 [43]: > 100 µM (inactive)
- GI50 [44]: 68.7 µM (inactive)
- GI50 [45]: 66.2 µM (inactive)
- GI50 [46]: 78.2 µM (inactive)
- GI50 [47]: 32.9 µM (inactive)
- GI50 [48]: 73.3 µM (inactive)
- GI50 [49]: 48.8 µM (inactive)
- GI50 [50]: > 100 µM (inactive)
- GI50 [51]: > 100 µM (inactive)
- GI50 [52]: 53.6 µM (inactive)
- GI50 [53]: > 100 µM (inactive)
- GI50 [54]: 31.5 µM (inactive)
- GI50 [57]: 23 µM (inactive)
- GI50 [55]: 31 µM (inactive)
- GI50 [58]: 71.3 µM (inactive)
- GI50 [56]: 20.9 µM (inactive)
